Results as given in ChEMBL document CHEMBL2439953, “Dimeric argininamide-type neuropeptide Y receptor antagonists: chiral discrimination between Y1 and Y4 receptors” (Bioorg Med Chem, 2013).

Experiments:
[1] = molecular target: T1, Neuropeptide Y receptor type 4 (Homo sapiens, UniProt P50391); experiment: Binding affinity to human neuropeptide Y receptor type 4 receptor expressed in CHO cells using Cy5-[K4]-hPP by flow cytometric analysis; format: cell-based
[2] = molecular target: T2, Neuropeptide Y receptor type 1 (Homo sapiens, UniProt P25929); experiment: Displacement of [3H]UR-MK114 from human neuropeptide Y receptor type 1 expressed in human SK-N-MC cells; format: cell-based
T2 sequence (P25929 whole entry): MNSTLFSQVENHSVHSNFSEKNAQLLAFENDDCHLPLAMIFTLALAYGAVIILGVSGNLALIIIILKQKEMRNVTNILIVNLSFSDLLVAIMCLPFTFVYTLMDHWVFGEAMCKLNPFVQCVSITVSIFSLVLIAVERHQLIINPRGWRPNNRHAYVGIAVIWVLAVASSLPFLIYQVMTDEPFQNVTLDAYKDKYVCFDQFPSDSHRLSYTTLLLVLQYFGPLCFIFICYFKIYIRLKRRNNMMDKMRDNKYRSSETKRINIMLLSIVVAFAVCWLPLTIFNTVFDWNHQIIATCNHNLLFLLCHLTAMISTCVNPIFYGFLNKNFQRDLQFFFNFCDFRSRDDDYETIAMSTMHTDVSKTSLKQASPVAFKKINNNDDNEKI

[3] = molecular target: T1, Neuropeptide Y receptor type 4; experiment: Antagonist activity at human neuropeptide Y receptor type 4 expressed in CHO cells co-expressing Gqi5-mtAEQ assessed as inhibition of hPP-induced calcium mobilization by Aequorin assay; format: functional, cell-based
[4] = molecular target: T3, Neuropeptide Y receptor type 1 (Homo sapiens) (UniProt P25929); experiment: Antagonist activity at neuropeptide Y receptor type 1 in HEL assessed as inhibition of pNPY-induced calcium mobilization by Fura-2 calcium assay; format: functional
T3 sequence (whole entry): T2 sequence (P25929 whole entry)

[5] = molecular target: T4, Neuropeptide Y receptor type 5 (Homo sapiens, UniProt Q15761); experiment: Binding affinity to human neuropeptide Y receptor type 5 receptor expressed in HEC-1B cells using Cy5-pNPY by flow cytometric analysis; format: cell-based
T4 sequence (Q15761 whole entry): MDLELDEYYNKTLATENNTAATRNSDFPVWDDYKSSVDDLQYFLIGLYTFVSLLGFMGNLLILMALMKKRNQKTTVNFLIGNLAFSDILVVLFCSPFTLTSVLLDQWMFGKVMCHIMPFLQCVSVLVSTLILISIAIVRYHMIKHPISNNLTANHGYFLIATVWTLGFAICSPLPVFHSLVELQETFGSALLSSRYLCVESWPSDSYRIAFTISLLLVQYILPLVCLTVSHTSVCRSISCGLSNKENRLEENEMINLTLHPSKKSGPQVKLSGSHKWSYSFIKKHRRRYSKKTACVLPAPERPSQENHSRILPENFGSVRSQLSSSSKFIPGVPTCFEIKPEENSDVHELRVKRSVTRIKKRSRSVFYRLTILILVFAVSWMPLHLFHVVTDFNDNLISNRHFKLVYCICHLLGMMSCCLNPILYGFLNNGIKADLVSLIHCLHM

[6] = molecular target: T2, Neuropeptide Y receptor type 1; experiment: Displacement of [3H]UR-MK114 from human neuropeptide Y receptor type 1 expressed in human MCF7 cells; format: cell-based
[7] = molecular target: T5, Neuropeptide Y receptor type 2 (Homo sapiens, UniProt P49146); experiment: Binding affinity to human neuropeptide Y receptor type 2 receptor expressed in CHO cells using Cy5-pNPY by flow cytometric analysis; format: cell-based
T5 sequence (P49146 whole entry): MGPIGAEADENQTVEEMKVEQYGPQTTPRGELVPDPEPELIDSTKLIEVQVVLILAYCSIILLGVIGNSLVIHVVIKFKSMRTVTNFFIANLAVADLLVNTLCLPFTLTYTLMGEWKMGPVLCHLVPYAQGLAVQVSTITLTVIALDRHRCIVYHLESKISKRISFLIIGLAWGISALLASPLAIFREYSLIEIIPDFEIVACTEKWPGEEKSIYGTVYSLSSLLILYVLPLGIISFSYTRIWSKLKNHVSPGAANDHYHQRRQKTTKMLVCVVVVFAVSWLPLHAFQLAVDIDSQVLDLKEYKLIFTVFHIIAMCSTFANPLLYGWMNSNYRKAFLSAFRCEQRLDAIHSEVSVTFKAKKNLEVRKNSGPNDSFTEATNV

T1 sequence (P50391 whole entry): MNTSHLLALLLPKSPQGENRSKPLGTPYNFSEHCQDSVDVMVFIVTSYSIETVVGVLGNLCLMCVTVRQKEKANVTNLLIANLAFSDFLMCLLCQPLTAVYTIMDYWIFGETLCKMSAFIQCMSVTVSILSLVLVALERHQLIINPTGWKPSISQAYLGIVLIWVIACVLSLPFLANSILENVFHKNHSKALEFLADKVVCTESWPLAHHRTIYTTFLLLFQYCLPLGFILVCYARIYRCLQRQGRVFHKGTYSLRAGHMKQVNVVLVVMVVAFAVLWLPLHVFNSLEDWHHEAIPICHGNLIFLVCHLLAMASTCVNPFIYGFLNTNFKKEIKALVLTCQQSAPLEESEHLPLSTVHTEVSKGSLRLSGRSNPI

Compound	Ki [1] [nM]	Ki [2] [nM]	Kb [3] [nM]	Kb [4] [nM]	Ki [5] [nM]	Ki [6] [nM]	Ki [7] [nM]
NCCOCCOCCNC(=O)/N=C(/N)NCCC[C@H](NC(=O)C(c1ccccc1)c1ccccc1)C(=O)NCc1ccc(CNC(N)=O)cc1	> 5000	> 5000	> 5000	> 5000	–	–	–
N/C(=N/C(=O)CCCCCCC(=O)/N=C(\N)NCCC[C@@H](NC(=O)C(c1ccccc1)c1ccccc1)C(=O)NCc1ccc(O)cc1)NCCC[C@@H](NC(=O)C(c1ccccc1)c1ccccc1)C(=O)NCc1ccc(O)cc1	–	–	98	3.5	–	–	–
NCCN(CCNC(=O)CCC(=O)NCCCCCCNC(=O)/N=C(\N)NCCC[C@H](NC(=O)CC1(CC(=O)N2CCN(C3c4ccccc4NC(=O)c4ccccc43)CC2)CCCC1)C(=O)NCCn1c(=O)n(-c2ccccc2)n(-c2ccccc2)c1=O)CCNC(=O)CCC(=O)NCCCCCCNC(=O)/N=C(\N)NCCC[C@@H](NC(=O)C(c1ccccc1)c1ccccc1)C(=O)NCc1ccc(O)cc1 (mixture of isomers)	910	230	72	1.5	> 5000	260	85
NCCN(CCNC(=O)CCC(=O)NCCOCCOCCNC(=O)/N=C(/N)NCCC[C@@H](NC(=O)C(c1ccccc1)c1ccccc1)C(=O)NCc1ccc(O)cc1)CCNC(=O)CCC(=O)NCCOCCOCCNC(=O)/N=C(/N)NCCC[C@@H](NC(=O)C(c1ccccc1)c1ccccc1)C(=O)NCc1ccc(O)cc1	470	25	41	1.1	> 5000	37	1800
NCCN(CCNC(=O)c1ccc(C(=O)NCCOCCOCCNC(=O)/N=C(/N)NCCC[C@@H](NC(=O)C(c2ccccc2)c2ccccc2)C(=O)NCc2ccc(O)cc2)cc1)CCNC(=O)c1ccc(C(=O)NCCOCCOCCNC(=O)/N=C(/N)NCCC[C@@H](NC(=O)C(c2ccccc2)c2ccccc2)C(=O)NCc2ccc(O)cc2)cc1	130	–	20	0.25	> 5000	48	–
CCC(=O)NCCN(CCNC(=O)c1ccc(C(=O)NCCOCCOCCNC(=O)/N=C(/N)NCCC[C@@H](NC(=O)C(c2ccccc2)c2ccccc2)C(=O)NCc2ccc(O)cc2)cc1)CCNC(=O)c1ccc(C(=O)NCCOCCOCCNC(=O)/N=C(/N)NCCC[C@@H](NC(=O)C(c2ccccc2)c2ccccc2)C(=O)NCc2ccc(O)cc2)cc1	410	64	36	–	> 5000	110	> 5000

The remaining lines, values ahead:

Ki [1] [nM]	Ki [2] [nM]	Kb [3] [nM]	Kb [4] [nM]	Ki [5] [nM]	Ki [6] [nM]	Ki [7] [nM]	Compound
3500	330	> 5000	120	> 5000	430	> 5000	N=C(N)NCCC[C@@H](NC(=O)C(c1ccccc1)c1ccccc1)C(=O)NCc1ccc(CNC(=O)NCCCCNC(=O)CCCC(=O)NCCN(CCN)CCNC(=O)CCCC(=O)NCCCCNC(=O)NCc2ccc(CNC(=O)[C@@H](CCCNC(=N)N)NC(=O)C(c3ccccc3)c3ccccc3)cc2)cc1
390	30	73	4.2	> 5000	–	620	NCCN(CCNC(=O)CCCC(=O)/N=C(/N)NCCC[C@@H](NC(=O)C(c1ccccc1)c1ccccc1)C(=O)NCc1ccc(O)cc1)CCNC(=O)CCCC(=O)/N=C(/N)NCCC[C@@H](NC(=O)C(c1ccccc1)c1ccccc1)C(=O)NCc1ccc(O)cc1
310	3100	140	110	> 5000	–	1100	NCCN(CCNC(=O)CCC(=O)NCCOCCOCCNC(=O)/N=C(/N)NCCC[C@H](NC(=O)C(c1ccccc1)c1ccccc1)C(=O)NCc1ccc(CNC(N)=O)cc1)CCNC(=O)CCC(=O)NCCOCCOCCNC(=O)/N=C(/N)NCCC[C@H](NC(=O)C(c1ccccc1)c1ccccc1)C(=O)NCc1ccc(CNC(N)=O)cc1
290	29	44	–	> 5000	50	1500	NCCN(CCNC(=O)CCCC(=O)NCCOCCOCCNC(=O)/N=C(/N)NCCC[C@@H](NC(=O)C(c1ccccc1)c1ccccc1)C(=O)NCc1ccc(O)cc1)CCNC(=O)CCCC(=O)NCCOCCOCCNC(=O)/N=C(/N)NCCC[C@@H](NC(=O)C(c1ccccc1)c1ccccc1)C(=O)NCc1ccc(O)cc1
290	230	96	4.2	> 5000	210	4000	NCCN(CCNC(=O)CCC(=O)NCCOCCOCCNC(=O)/N=C(/N)NCCC[C@@H](NC(=O)C(c1ccccc1)c1ccccc1)C(=O)NCc1ccc(CNC(N)=O)cc1)CCNC(=O)CCC(=O)NCCOCCOCCNC(=O)/N=C(/N)NCCC[C@@H](NC(=O)C(c1ccccc1)c1ccccc1)C(=O)NCc1ccc(CNC(N)=O)cc1
